Test results taken from article PMC6443376 (Journal of medicinal chemistry, 2018).
Read-outs that look alike come from different tables or passages of the source.

Experiments:
[1] = test system: outer hair cells, 32-kHz region of the organ of Corti; experiment: Morphologic analysis and OHC counts of cochleae from cisplatin-treated mice; type: in vivo, mouse
[2] = test system: cisplatin-induced ototoxicity in adult FVB mice; type: in vivo, mouse; details: 50 μM transtympanic
[3] = weekly dosing schedule, phase I study; cited from earlier work
[4] = test system: P3 mouse cochlear explants; experiment: Cochlear explant cultures treated with cisplatin, outer hair cell counts; details: for Protection at higher doses in explants treated with cisplatin: dose-response
[5] = test system: adult FVB mice; experiment: Toxicity of compound alone delivered transtympanically; details: 2, 10 or 50 μM, single transtympanic injection, 15 days after injection
[6] = test system: cisplatin-induced ototoxicity in adult FVB mice; details: earlier study of the authors; cited from earlier work
[7] = molecular target: Cdk2/Cyclin A (Homo sapiens, UniProt P24941); experiment: CDK2 inhibition assay; type: biochemical

For `Cc1ncc(-c2ccnc(Nc3ccc(S(C)(=O)=O)cc3)n2)n1C(C)C` [AZD5438], the “OHC loss in the 32-kHz region” value ([1]; 50 μM transtympanic 1 h before and 24 h after cisplatin) is listed as “virtually no OHC loss”, the “Overall protection against cisplatin-induced ototoxicity in mice” value (“Overall protection” below) [2] is listed as “fully protective” and the “Safety and tolerability in patients” value [3] is listed as “safe and well tolerated”.

For `O=C(N[C@H]1CC[C@H](O)CC1)c1n[nH]cc1NC(=O)c1c(F)cccc1F` [analog 7], the “Protection against cisplatin toxicity in cochlear explants” value ([4]; compound 150 nM, P3 mouse explants, OHC counts) was “significant protection”, the “Protection at higher doses in explants treated with cisplatin” value [4] was “maintains the level of protection at higher doses” and the “Toxicity in the ears of mice in the absence of cisplatin” value [5] was “nontoxic”. For the same compound, the “OHC loss in middle basal turn (32-kHz region) vs cisplatin alone” value ([1]; 50 μM transtympanic 1 h before cisplatin) was “Substantially less OHC loss” and the “Overall protection” value [2] was “some—but not complete—protection”.

Compound AZD1080 has an EC50 ([4]; read-out: Explant EC50, estimated EC50 based on 2–3 tested dose concentrations, cisplatin 150 μM) of 15 µM.

In the case of `O=C(NC1CCNCC1)c1n[nH]cc1NC(=O)c1c(Cl)cccc1Cl` [AT7519, N-(4-piperidinyl)-4-(2,6-dichlorobenzoylamino)-1H-pyrazole-3-carboxamide], the “Protection in cochlear explant cultures treated with cisplatin” value ([4]; compound 25 nM, cisplatin 150 μM) is reported as “excellent protection” and the “Protection at higher doses in explants treated with cisplatin” value [4] is reported as “loss of activity was observed at higher doses”.

In the case of `O=C1Cc2c([nH]c3ccc(Br)cc23)-c2ccccc2N1` [Kenpaullone], the “Overall protection” value [6] is listed as “complete protection”.

With `O=C(NC1CCN(C(=O)c2c(Cl)cccc2Cl)CC1)c1n[nH]cc1NC(=O)c1c(Cl)cccc1Cl` [analog 14] the IC50 [7] was 0.76 µM.
